Reference: patent US20240158385A1, “NOVEL COMPOUNDS” (Cerevance, Inc., priority 2021, published 2024)
pIC50: −log10 of the molar value.

What follows are compounds tested against T1, human KCNK13 (Homo sapiens, UniProt Q9HB14) (assay: KCNK13 antagonist activity, thallium (Tl+) flux FLIPR assay). Details: not given.
T1 construct: expressed in transfected cells
T1 sequence (Q9HB14 1-408): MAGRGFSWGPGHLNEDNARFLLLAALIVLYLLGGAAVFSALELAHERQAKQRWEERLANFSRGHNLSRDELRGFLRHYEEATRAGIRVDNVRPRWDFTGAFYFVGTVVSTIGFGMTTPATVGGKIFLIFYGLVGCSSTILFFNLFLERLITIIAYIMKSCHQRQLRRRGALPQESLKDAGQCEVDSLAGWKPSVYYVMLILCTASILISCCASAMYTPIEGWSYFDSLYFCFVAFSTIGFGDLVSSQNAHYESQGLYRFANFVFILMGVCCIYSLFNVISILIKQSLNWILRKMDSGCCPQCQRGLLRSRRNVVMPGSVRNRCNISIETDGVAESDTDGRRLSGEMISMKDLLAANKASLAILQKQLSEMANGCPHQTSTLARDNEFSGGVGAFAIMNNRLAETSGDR
Type: cell-based
In short: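 HEK 293 cells stably expressing human KCNK13 loaded with Tl+-sensitive dye for 1 h at room temperature. Compounds (10-point half-log curves) preincubated 15 min before thallium sulfate stimulus, fluorescence tracked by FLIPR. IC50 from ten-point curves, each point the mean of two wells.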

| Compound | pIC50 |
| --- | --- |
| Nc1nonc1-c1nc2cccnc2n1Cc1ccc(Cl)nc1 [Example 23, 4-[3-[(6-chloropyridin-3-yl)methyl]imidazo[4,5-b]pyridin-2-yl]-1,2,5-oxadiazol-3-amine] | > 7.30 |
| Cc1nonc1-c1nc2cccnc2n1Cc1ccc(Cl)nc1 [Example 24, 3-[3-[(6-chloropyridin-3-yl)methyl]imidazo[4,5-b]pyridin-2-yl]-4-methyl-1,2,5-oxadiazole] | > 7.00 |
| Nc1nonc1-c1nc2cc(F)cnc2n1Cc1ccc(Cl)nc1 [Example 29, 4-[3-[(6-chloropyridin-3-yl)methyl]-6-fluoro-imidazo[4,5-b]pyridin-2-yl]-1,2,5-oxadiazol-3-amine] | > 7.30 |
| Cc1nonc1-c1nc2c(F)cccc2n1Cc1ccc(Cl)nc1 [Example 39, 3-[1-[(6-chloropyridin-3-yl)methyl]-4-fluoro-benzimidazol-2-yl]-4-methyl-1,2,5-oxadiazole] | > 6.70 |

Same assay, conditions: HEK 293 cells stably expressing human KCNK13; Tl+ sensitive dye, FLIPR; compounds 15 minutes prior to thallium sulfate; 10 point half log curves from 10 PM; read-out: hKCNK13 IC50

| Compound | pIC50 |
| --- | --- |
| Cc1nonc1-c1nc2cccnc2n1Cc1ccc(C(F)(F)F)nc1 [Example 17, 3-methyl-4-[3-[[6-(trifluoromethyl)pyridin-3-yl]methyl]imidazo[4,5-b]pyridin-2-yl]-1,2,5-oxadiazole] | > 6.30 |
| Cc1nonc1-c1nc2cccnc2n1Cc1ccc(C#N)nn1 [Example 18, 6-[[2-(4-methyl-1,2,5-oxadiazol-3-yl)imidazo[4,5-b]pyridin-3-yl]methyl]pyridazine-3-carbonitrile] | > 6.30 |
| Nc1nonc1-c1nc2cccnc2n1Cc1ccc(C(F)(F)F)nc1 [Example 19, 4-[3-[[6-(trifluoromethyl)pyridin-3-yl]methyl]imidazo[4,5-b]pyridin-2-yl]-1,2,5-oxadiazol-3-amine] | > 6.30 |
| Cc1nonc1-c1nc2cccnc2n1Cc1cccnn1 [Example 20, 3-methyl-4-[3-(pyridazin-3-ylmethyl)imidazo[4,5-b]pyridin-2-yl]-1,2,5-oxadiazole] | > 6.00 |
| Nc1nonc1-c1nc2c(F)ccc(F)c2n1Cc1cccnc1 [Example 22, 4-[4,7-difluoro-1-(pyridin-3-ylmethyl)benzimidazol-2-yl]-1,2,5-oxadiazol-3-amine] | > 7.30 |
| Cc1nonc1-c1nc2cc(F)cc(F)c2n1Cc1cccnc1 [Example 27, 3-[5,7-difluoro-1-(pyridin-3-ylmethyl)benzimidazol-2-yl]-4-methyl-1,2,5-oxadiazole] | > 7.30 |
| Nc1nonc1-c1nc2cc(Br)ccc2n1Cc1cccnc1 [Example 33, 4-[5-bromo-1-(pyridin-3-ylmethyl)benzimidazol-2-yl]-1,2,5-oxadiazol-3-amine] | > 7.30 |
| CN(C)c1ccc2c(c1)nc(-c1nonc1N)n2Cc1cccnc1 [Example 34, 4-[5-(dimethylamino)-1-(pyridin-3-ylmethyl)benzimidazol-2-yl]-1,2,5-oxadiazol-3-amine] | > 6.00 |
| Cc1nonc1-c1nc2cccc(F)c2n1Cc1ccc(Cl)nc1 [Example 38, 3-[1-[(6-chloropyridin-3-yl)methyl]-7-fluoro-benzimidazol-2-yl]-4-methyl-1,2,5-oxadiazole] | > 7.30 |
| N#Cc1ccc(Cn2c(-c3nonc3N)nc3cccnc32)cn1 [Example 51, 5-[[2-(4-amino-1,2,5-oxadiazol-3-yl)imidazo[4,5-b]pyridin-3-yl]methyl]pyridine-2-carbonitrile] | > 6.30 |
| Cc1nonc1-c1nc2ccccc2n1Cc1ccc(S(C)(=O)=O)nc1 [Example 58, 3-methyl-4-[1-[(6-(methylsulfonyl)pyridin-3-yl)methyl]benzimidazol-2-yl]-1,2,5-oxadiazole] | > 7.00 |
| Nc1nonc1-c1nc2cccnc2n1Cc1cccnc1 [Example 59, 4-[3-(pyridin-3-ylmethyl)imidazo[4,5-b]pyridin-2-yl]-1,2,5-oxadiazol-3-amine] | > 6.70 |
| Cc1nonc1-c1nc2ccccc2n1Cc1ccc(Cl)nc1 [Example 60, 3-[1-[(6-chloropyridin-3-yl)methyl]benzimidazol-2-yl]-4-methyl-1,2,5-oxadiazole] | > 7.00 |
| Cc1ccc(Cn2c(-c3nonc3C)nc3ccccc32)cn1 [Example 63, 3-methyl-4-[1-[(6-methylpyridin-3-yl)methyl]benzimidazol-2-yl]-1,2,5-oxadiazole] | > 6.70 |

Further lines, results first:

| pIC50 | Compound |
| --- | --- |
| > 7.30 | N#Cc1ncc(Cn2c(-c3nonc3N)nc3c(F)ccc(F)c32)cn1 [Example 28, 5-[[2-(4-amino-1,2,5-oxadiazol-3-yl)-4,7-difluoro-benzimidazol-1-yl]methyl]pyrimidine-2-carbonitrile] |
| > 7.30 | N#Cc1cnc(Cn2c(-c3nonc3N)nc3cccc(F)c32)cn1 [Example 35, 5-[[2-(4-amino-1,2,5-oxadiazol-3-yl)-7-fluoro-benzimidazol-1-yl]methyl]pyrazine-2-carbonitrile] |
| > 7.00 | N#Cc1cnc(Cn2c(-c3nonc3N)nc3c(F)cccc32)cn1 [Example 36, 5-[[2-(4-amino-1,2,5-oxadiazol-3-yl)-4-fluoro-benzimidazol-1-yl]methyl]pyrazine-2-carbonitrile] |
| > 7.30 | Cc1nonc1-c1nc2ccccc2n1Cc1ccc(C#N)nc1 [Example 37, 5-[[2-(4-methyl-1,2,5-oxadiazol-3-yl)benzimidazol-1-yl]methyl]pyridine-2-carbonitrile] |
| > 7.00 | Cc1nonc1-c1nc2c(F)cccc2n1Cc1ccc(C#N)nc1 [Example 40, 5-[[4-fluoro-2-(4-methyl-1,2,5-oxadiazol-3-yl)benzimidazol-1-yl]methyl]pyridine-2-carbonitrile] |
| > 7.00 | Cc1nonc1-c1nc2cccc(F)c2n1Cc1cnc(C#N)cn1 [Example 41, 5-[[7-fluoro-2-(4-methyl-1,2,5-oxadiazol-3-yl)benzimidazol-1-yl]methyl]pyrazine-2-carbonitrile] |
| > 6.00 | Cc1nonc1-c1nc2c(F)cccc2n1Cc1cnc(C#N)cn1 [Example 42, 5-[[4-fluoro-2-(4-methyl-1,2,5-oxadiazol-3-yl)benzimidazol-1-yl]methyl]pyrazine-2-carbonitrile] |
| > 6.00 | COc1ccc(Cn2c(-c3nonc3C)nc3cccc(F)c32)cn1 [Example 43, 3-[7-fluoro-1-[(6-methoxypyridin-3-yl)methyl]benzimidazol-2-yl]-4-methyl-1,2,5-oxadiazole] |
| > 7.30 | Cc1nonc1-c1nc2cccc(F)c2n1Cc1cnc(C#N)nc1 [Example 44, 5-[[7-fluoro-2-(4-methyl-1,2,5-oxadiazol-3-yl)benzimidazol-1-yl]methyl]pyrimidine-2-carbonitrile] |
| > 7.00 | Cc1nonc1-c1nc2c(F)cccc2n1Cc1cnc(C#N)nc1 [Example 45, 5-[[4-fluoro-2-(4-methyl-1,2,5-oxadiazol-3-yl)benzimidazol-1-yl]methyl]pyrimidine-2-carbonitrile] |
| > 7.00 | Cc1nonc1-c1nc2cccc(F)c2n1Cc1ccc(C#N)nn1 [Example 46, 6-[[7-fluoro-2-(4-methyl-1,2,5-oxadiazol-3-yl)benzimidazol-1-yl]methyl]pyridazine-3-carbonitrile] |
| > 6.70 | Cc1nonc1-c1nc2c(F)cccc2n1Cc1ccc(C#N)nn1 [Example 47, 6-[[4-fluoro-2-(4-methyl-1,2,5-oxadiazol-3-yl)benzimidazol-1-yl]methyl]pyridazine-3-carbonitrile] |
| > 6.00 | CCOc1ccc(Cn2c(-c3nonc3C)nc3c(F)cccc32)cn1 [Example 48, 3-[1-[(6-ethoxypyridin-3-yl)methyl]-4-fluoro-benzimidazol-2-yl]-4-methyl-1,2,5-oxadiazole] |
| > 7.00 | Cc1nonc1-c1nc2cccnc2n1Cc1ccc(C#N)nc1 [Example 50, 5-[[2-(4-methyl-1,2,5-oxadiazol-3-yl)imidazo[4,5-b]pyridin-3-yl]methyl]pyridine-2-carbonitrile] |
| > 7.00 | Cc1nonc1-c1nc2cccc(F)c2n1Cc1ccc(C#N)nc1 [Example 52, 5-[[7-fluoro-2-(4-methyl-1,2,5-oxadiazol-3-yl)benzimidazol-1-yl]methyl]pyridine-2-carbonitrile] |
| > 7.00 | COc1ccc(Cn2c(-c3nonc3C)nc3ccccc32)cn1 [Example 53, 3-[1-[(6-methoxypyridin-3-yl)methyl]benzimidazol-2-yl]-4-methyl-1,2,5-oxadiazole] |
| > 6.30 | Cc1nonc1-c1nc2ccccc2n1Cc1ccc(O)nc1 [Example 54, 5-[[2-(4-methyl-1,2,5-oxadiazol-3-yl)benzimidazol-1-yl]methyl]pyridin-2-ol] |
| > 7.00 | Cc1nonc1-c1nc2ccc(F)cc2n1Cc1ccc(C#N)nc1 [Example 55, 5-[[6-fluoro-2-(4-methyl-1,2,5-oxadiazol-3-yl)benzimidazol-1-yl]methyl]pyridine-2-carbonitrile] |
| > 7.00 | Cc1nonc1-c1nc2ccc(F)c(F)c2n1Cc1cccnc1 [Example 56, 3-[6,7-difluoro-1-(pyridin-3-ylmethyl)benzimidazol-2-yl]-4-methyl-1,2,5-oxadiazole] |
| > 6.70 | Cc1ncc(Cn2c(-c3nonc3C)nc3ccccc32)cn1 [Example 64, 3-methyl-4-[1-[(2-methylpyrimidin-5-yl)methyl]benzimidazol-2-yl]-1,2,5-oxadiazole] |
| > 7.30 | Cc1nonc1-c1nc2c(F)ccc(F)c2n1Cc1cccnc1 [Example 65, 3-[4,7-difluoro-1-(pyridin-3-ylmethyl)benzimidazol-2-yl]-4-methyl-1,2,5-oxadiazole] |
